# According to US20220339135A1, “COMPOSITIONS AND METHODS FOR MODULATING AN INFLAMMATORY RESPONSE” (Enzychem Lifesciences Corporation, priority 2019, published 2022):
# Columns and labels:
# [1] = test system: intracellular lysosomes of Raw264.7 cells; experiment: LPS-induced lysosomal activity (LYSO-ID); format: cell-based; settings: LPS/PLAG treatment
# Procedure: Raw264.7 cells were divided into two groups: 1) LPS treated group and 2) LPS/PLAG treated group. For the LPS treated group, cells were treated with 100 μg/ml of DMSO (as solvent control) for 1 hour and treated with LPS (100 ng/ml) for 15, 30, 60, and 120 minutes. For LPS/PLAG treated group, cells were treated with PLAG (100 μg/ml) for 1 hour and treated with LPS (100 ng/ml) for 15, 30, 60, and 120 minutes. Cells were then fixed and stained using rat anti-TLR4/MD2 antibody with Alexa488-conjugated anti-rat IgG secondary antibody. These were analyzed by confocal microscopy. Raw264.7 cells stimulated under the same conditions were fixed, permeabilized, and stained with CM-H2DCFDA, the LYSO-ID® Lysosomal Detection Kit and rabbit anti-p47phox. Confocal microscopy was performed; all data shown represent one experiment performed in triplicate.
# [2] = Cumulative excretion of radioactivity after single oral administration; format: in vivo, rats
# Procedure: Excretion of PLAG at a single oral administration of 50 mg/kg BW to rats was examined in Mitsubishi Chemical Medicine Corporation (Japan) by radioactivity analysis. After oral administration of a single dose of 50 mg/kg, animals were individually accommodated in glass metabolic cages (Metabolica Model MC-CO2). Spontaneously excreted urine, feces, and radioactive molecules expired from each animal were collected. Sampling time points are 0-24, 24-48, 48-72 hours after administration. Then radioactivity and the excretion ratios and amount of radioactivity were determined. Radioactivity was measured by LSC (Tri-Carb 2300TR. Perkin Elmer, Inc) with the tSIE (transformed spectral index of external standard) method for the quenching correction.
smiles,measurement,setting,value
"CCCCC/C=C\C/C=C\CCCCCCCC(=O)OC(COC(C)=O)COC(=O)CCCCCCCCCCCCCCC (racemic) [PLAG, 1-palmitoyl-2-linoleoyl-3-acetylglycerol]",lysosomal activity initiated,[1],15 min
same,return to homeostatic levels of lysosomal activity,[1],60 min
same,dosed radioactivity excreted into expired air,"[2]; 50 mg/kg oral, by 24 hours",71.0%
same,dosed radioactivity excreted into feces,"[2]; 50 mg/kg oral, by 24 hours",3.0%
same,dosed radioactivity excreted into urine,"[2]; 50 mg/kg oral, by 24 hours",1.9%
same,total recovery of radioactivity,"[2]; 50 mg/kg oral, by 24 hours",75.9%
same,PLAG administered degraded and metabolized,[2]; within 24 hours,approximately 76%
